# PMC11647681, “Discovery of Non-Covalent Inhibitors for SARS-CoV-2 PLpro: Integrating Virtual Screening, Synthesis, and Experimental Validation” (ACS Medicinal Chemistry Letters, 2024)
# Several values for one entry are separate records, joined by “and”; a condition that tells them apart may be missing. Identical values can stand only once. Like-named read-outs stand apart in the source and are kept apart here.
# Assays:
# [1] = in vitro; conditions: human
# [2] = target: SARS-CoV-2 PLpro (Severe acute respiratory syndrome coronavirus 2, UniProt P0DTD1); experiment: SARS-CoV-2 PLpro inhibition assay (enzymatic, LKGG-AMC substrate); format: biochemical; conditions: for Ki: Hanes-Woolf plot; for Ki / inhibition mechanism: kinetic characterization; for IC50: enzymatic assay
# [3] = physchem
# [4] = in vitro; conditions: chlorocebus sabaeus
# [5] = mouse, microsomes, 0.5 h; cited from earlier work
# [6] = rat, microsomes, 0.5 h; cited from earlier work
# [7] = system: PLpro; conditions: cited from earlier work; for IC50: PLpro
SMILES,CC50 [1] [µM],IC50 [2] [µM],solubility [3] [µM],CC50 [4] [µM],other results
"Cn1ccc(-c2ccc3nccc(N[C@@H]4CCNC4)c3n2)cc1=O [Compound 1, Cn1ccc(cc1=O)-c1ccc2nccc(NC3CC[NH2+]C3)c2n1]",> 50,73.6,195,23.8,Ki [2]: 22.4 ± 6.7 µM; inhibition mechanism [2]: competitive; inhibition test in absence and presence of Triton (aggregation check) ([2]; with or without 0.01% Triton): no significant differences
"CCN(CCNc1nc2ccccc2[nH]1)Cc1cc(Cl)ccc1O [Compound 2, CCN(CCNc1nc2ccccc2[nH]1)Cc1cc(ccc1O)Cl]",,102,,,
"CCN(CC)Cc1cc(Nc2nc3ccccc3[nH]2)ccc1O [Compound 3, CCN(CC)Cc1cc(ccc1O)Nc1nc2ccccc2[nH]1]",,127,,,
"NCCNc1nccc2[nH]c(-c3ccc(F)c(F)c3)nc12 [Compound 4, NCCNc1nccc2[nH]c(nc12)-c1ccc(c(c1)F)F]",,130,,,
"O=C1CN(C(=O)CNC(=O)c2ccc3c(c2)B(O)OC3)CCN1 [Compound 5, O[B]1OCc2ccc(cc21)C(=O)NCC(=O)N1CCNC(=O)C1]",,137,,,
"O=C(NCc1cccc(F)c1)c1ncc2ccccn12 [Compound 6, Fc1cccc(CNC(=O)c2ncc3ccccn23)c1]",,194,,,
"CN1CCC(Nc2ccnc3ccc(-c4ccc(C(=O)NCCO)nc4)nc23)CC1 [Compound 82, O=C(NCCO)C1=NC=C(C2=NC3=C(N=CC=C3NC4CCN(C)CC4)C=C2)C=C1]",> 50,79.8 ± 20.4,200,> 50,
"CS(=O)(=O)c1cccc(-c2ccc3nccc(N4CCNCC4)c3n2)c1 [Compound 83, O=S(C1=CC=CC(C2=NC3=C(N=CC=C3N4CCNCC4)C=C2)=C1)(C)=O]",> 50,54.8,180,43.6,"Microsomal stability, % remaining after 30 min [5]: 60.24%; Microsomal stability, % remaining after 30 min [6]: 50.41%"
"CNC(=O)c1ccc(-c2ccc3nccc(NC4CCNCC4)c3n2)cn1 [Compound 84, O=C(NC)C1=NC=C(C2=NC3=C(N=CC=C3NC4CCNCC4)C=C2)C=C1]",> 50,39.5 ± 4.62,175,47.3,
"COc1ccc(-c2ccc3nccc(N[C@@H]4CCNC4)c3n2)cn1 [Compound 85, COC1=NC=C(C2=NC3=C(N=CC=C3N[C@@H]4CCNC4)C=C2)C=C1]",26.3,15.1 ± 2.19,190,7.47,"fold improvement in PLpro activity ([2]; 85 compared with 1): 5 fold; Ki [2]: 22.9 µM and 20.1 µM; inhibition mechanism [2]: competitive; inhibition test in absence and presence of CHAPS detergent (aggregation check) ([2]; with and without 1 mM CHAPS): No significant difference; Microsomal stability, % remaining after 30 min [5]: 66.61%; Microsomal stability, % remaining after 30 min [6]: 62.68%"
CCn1ccc(-c2cc(-c3cnn(C)c3)cc([C@@H](C)NC(=O)c3cc(OCCN(C)C)ccc3C)c2)n1 [Jun12682],,,,,"protease, deubiquitinase, and deISGylase activity of PLpro [7]: inhibited"
S=C(SSC(=S)N1CCOCC1)N1CCOCC1 [RI173],,,,,IC50 [7]: 0.2 µM
